Test results taken from ChEMBL document CHEMBL5215006, “Antitumor Activity of Piceamycin by Upregulation of N-Myc Downstream-Regulated Gene 1 in Human Colorectal Cancer Cells” (J Nat Prod, 2022).
Calls of active or inactive are those of the source. No cut-off for these calls is given here.

Columns and labels:
HCT-116 [1] = assay: Antimigratory activity against highly liver metastatic human HCT-116 cells assessed as downregulation of Snail gene expression at 0.075 to 0.3 uM incubated for 24 hrs by RT-PCR method; type: functional, cell-based; details: dose 0.075-0.3 µM
HCT-116 [2] = assay: Antimigratory activity against highly liver metastatic human HCT-116 cells assessed as upregulation of E-cadherin protein expression at 0.075 to 0.3 uM incubated for 24 hrs by immunoblotting assay; type: functional, cell-based; details: dose 0.075-0.3 µM
HCT-116 [3] = assay: Induction of apoptosis in human HCT-116 cells assessed as upregulation of cleaved PARP expression at 0.3 uM measured at 12 to 48 hrs by immunoblotting assay; type: functional, cell-based; details: time 12-48 hrs, TDE = time-dependent effect
HCT-116 [4] = assay: Induction of apoptosis in human HCT-116 cells assessed as viable cells at 0.075 uM incubated for 48 hrs by Annexin V-FITC/PI staining based flow cytometry analysis (Rvb= 94.18%); type: functional; details: read-out: Activity
HCT-116 [5] = assay: Antimigratory activity against highly liver metastatic human HCT-116 cells assessed as upregulation of NDRG1 gene expression at 0.075 to 0.3 uM incubated for 24 hrs by RT-PCR method; type: functional, cell-based; details: dose 0.075-0.3 µM
SW480 [6] = assay: Cell cycle arrest in human SW480 cells assessed as accumulation at Sub-G1 phase at 0.7 uM incubated for 24 hrs by RNaseA/propidium iodide staining based flow cytometry (reference value: 3.2 %); type: functional
SW480 [7] = assay: Antiproliferative activity against human SW480 cells assessed as cell growth inhibition incubated for 72 hrs by SRB assay; type: functional, cell-based; details: SW480, 72 h
HCT-116 [8] = assay: Cell cycle arrest in human HCT-116 cells assessed as downregulation of CDK6 protein expression at 0.075 to 0.3 uM incubated for 24 hrs by immunoblotting assay; type: functional, cell-based; details: dose 0.075-0.3 µM
HCT-116 [9] = assay: Cell cycle arrest in human HCT-116 cells assessed as accumulation at S phase at 0.075 uM incubated for 24 hrs by RNaseA/propidium iodide staining based flow cytometry (reference value: 19.94 %); type: functional
SW480 [10] = assay: Induction of apoptosis in human SW480 cells assessed as upregulation of cleaved caspase-8 expression at 1.4 uM measured at 12 to 48 hrs by immunoblotting assay; type: functional, cell-based; details: time 12-48 hrs, TDE = time-dependent effect
SW480 [11] = assay: Cell cycle arrest in human SW480 cells assessed as accumulation at G0/G1 phase at 1.4 uM incubated upto 48 hrs by RNaseA/propidium iodide staining based flow cytometry; type: functional
HCT-116 [12] = assay: Antitumor activity against human HCT-116 cells xenografted Balb/c mouse assessed as reduction in tumor growth at 3 mg/kg,ip administrated for 18 days by 3 times per week; type: functional; parameters: scale not given: the % may be the effect or the level left; details: time 18 day
HCT-116 [13] = assay: Cell cycle arrest in human HCT-116 cells assessed as accumulation at Sub-G1 phase at 0.075 uM incubated for 24 hrs by RNaseA/propidium iodide staining based flow cytometry (reference value: 3.66 %); type: functional
SW480 [14] = assay: Induction of apoptosis in human SW480 cells assessed as viable cells at 0.35 uM incubated for 48 hrs by Annexin V-FITC/PI staining based flow cytometry analysis (Rvb= 92.6%); type: functional; details: read-out: Activity
SW480 [15] = assay: Cell cycle arrest in human SW480 cells assessed as accumulation at G2/M phase at 0.35 uM incubated for 24 hrs by RNaseA/propidium iodide staining based flow cytometry (reference value: 24.74 %); type: functional
HCT-116 [16] = assay: Induction of apoptosis in human HCT-116 cells assessed as early apoptotic cells at 0.3 uM incubated for 48 hrs by Annexin V-FITC/PI staining based flow cytometry analysis (Rvb= 2.51%); type: functional
SW480 [17] = assay: Anti-migratory activity against human SW480 cells assessed as downregulation of Snail gene expression at 0.35 to 1.4 uM incubated for 24 hrs by RT-PCR assay; type: functional, cell-based; details: dose 0.35-1.4 µM
HCT-116 [18] = assay: Induction of apoptosis in human HCT-116 cells assessed as upregulation of cleaved caspase-8 expression at 0.3 uM measured at 12 to 48 hrs by immunoblotting assay; type: functional, cell-based; details: time 12-48 hrs, TDE = time-dependent effect
SW480 [19] = assay: Cell cycle arrest in human SW480 cells assessed as downregulation of cyclin-D1 protein expression at 0.35 to 1.4 uM incubated for 24 hrs by immunoblotting assay; type: functional, cell-based; details: dose 0.35-1.4 µM
HCT-116 [20] = assay: Anti-migratory activity against human HCT-116 cells assessed as downregulation of N-cadherin gene expression at 0.075 to 0.3 uM incubated for 24 hrs by RT-PCR assay; type: functional, cell-based; details: dose 0.075-0.3 µM
HCT-116 [21] = assay: Antitumor activity against human HCT-116 cells xenografted Balb/c mouse assessed as increase in NDRG1 protein expression at 3 mg/kg,ip administrated for 18 days by 3 times per week by immunoblotting assay; type: functional, organism-based; details: time 18.0 day
SW480 [22] = assay: Cell cycle arrest in human SW480 cells assessed as accumulation at G0/G1 phase at 0.35 uM incubated for 24 hrs by RNaseA/propidium iodide staining based flow cytometry (reference value: 54.49 %); type: functional
HCT-116 [23] = assay: Induction of apoptosis in human HCT-116 cells assessed as early apoptotic cells at 0.15 uM incubated for 48 hrs by Annexin V-FITC/PI staining based flow cytometry analysis (Rvb= 2.51%); type: functional
SW480 [24] = assay: Induction of apoptosis in human SW480 cells assessed as viable cells at 1.4 uM incubated for 48 hrs by Annexin V-FITC/PI staining based flow cytometry analysis (Rvb= 92.6%); type: functional; details: read-out: Activity
HCT-116 [25] = assay: Downregulation of cleaved PARP protein expression in human HCT-116 cells with NDRG1 knockdown at 0.3 uM incubated for 24 hrs by immunoblotting assay; type: functional, cell-based
HCT-116 [26] = assay: Induction of apoptosis in human HCT-116 cells assessed as necrotic cells at 0.3 uM incubated for 48 hrs by Annexin V-FITC/PI staining based flow cytometry analysis (Rvb= 0.13%); type: functional
SW480 [27] = assay: Anti-migratory activity against human SW480 cells assessed as downregulation of N-cadherin gene expression at 0.35 to 1.4 uM incubated for 24 hrs by RT-PCR assay; type: functional, cell-based; details: dose 0.35-1.4 µM
HCT-116 [28] = assay: Antimigratory activity against highly liver metastatic human HCT-116 cells assessed as downregulation of N-cadherin protein expression at 0.075 to 0.3 uM incubated for 24 hrs by immunoblotting assay; type: functional, cell-based; details: dose 0.075-0.3 µM
SW480 [29] = assay: Induction of apoptosis in human SW480 cells assessed as upregulation of cleaved PARP expression at 1.4 uM measured at 12 to 48 hrs by immunoblotting assay; type: functional, cell-based; details: time 12-48 hrs, TDE = time-dependent effect
HCT-116 [30] = assay: Anti-migratory activity against human HCT-116 cells assessed as downregulation of Snail protein expression at 0.075 to 0.3 uM incubated for 24 hrs by immunoblotting assay; type: functional, cell-based; details: dose 0.075-0.3 µM
HCT-116 [31] = assay: Cell cycle arrest in human HCT-116 cells assessed as accumulation at G2/M phase at 0.075 uM incubated for 24 hrs by RNaseA/propidium iodide staining based flow cytometry (reference value: 28.41 %); type: functional
HCT-116 [32] = assay: Anti-migratory activity against human HCT-116 cells assessed as upregulation of E-cadherin gene expression at 0.075 to 0.3 uM incubated for 24 hrs by RT-PCR assay; type: functional, cell-based; details: dose 0.075-0.3 µM
HCT-116 [33] = assay: Cell cycle arrest in human HCT-116 cells assessed as accumulation at S phase at 0.15 uM incubated for 24 hrs by RNaseA/propidium iodide staining based flow cytometry (reference value: 19.94 %); type: functional
HCT-116 [34] = assay: Cell cycle arrest in human HCT-116 cells assessed as accumulation at G2/M phase at 0.15 uM incubated for 24 hrs by RNaseA/propidium iodide staining based flow cytometry (reference value: 28.41 %); type: functional

For `C[C@@H]1\C=C/C=C/C=C\C=C\C=C\C(=O)C2=C(O)C(=O)C[C@@]2(C)/C=C/C=C\C=C/C(=O)NC1`, the Activity (HCT-116 [1]) was “Active”, the Activity (HCT-116 [2]) was “Active” and the Activity (HCT-116 [3]) was “Tde”. The viability at 0.075 µM (HCT-116 [4]) was 84.8%, the Activity (HCT-116 [5]) was “Active” and the Activity (SW480 [6]) was 4.68%. The IC50 (SW480 [7]) was 650 nM, the Activity (HCT-116 [8]) was “Active” and the Activity (HCT-116 [9]) was 18.4%. The Activity (SW480 [10]) was “Tde”, the Activity (SW480 [11]) was “Active” and the Activity (HCT-116 [12]) was 89%. It also gave an Activity (HCT-116 [13]) of 4.46%, a viability at 0.35 µM (SW480 [14]) of 93% and an Activity (SW480 [15]) of 24.45%. The Activity (HCT-116 [16]) was 44.79%, the Activity (SW480 [17]) was “Active” and the Activity (HCT-116 [18]) was “Tde”. The Activity (SW480 [19]) was “Active”, the Activity (HCT-116 [20]) was “Active” and the Activity (HCT-116 [21]) was “Active”. It also gave an Activity (SW480 [22]) of 54.89%, an Activity (HCT-116 [23]) of 15.66% and a viability at 1.4 µM (SW480 [24]) of 31%. The Activity (HCT-116 [25]) was “Active”, the Activity (HCT-116 [26]) was 0.18% and the Activity (SW480 [27]) was “Active”. For the same compound, the Activity (HCT-116 [28]) was “Active”, the Activity (SW480 [29]) was “Tde” and the Activity (HCT-116 [30]) was “Active”. For the same compound, the Activity (HCT-116 [31]) was 29.02%, the Activity (HCT-116 [32]) was “Active” and the Activity (HCT-116 [33]) was 11.41%. For the same compound, the Activity (HCT-116 [34]) was 21.81%.
